Assay [1] concerns Hacl-1 in the hair follicles. In words: Induction of Hacl-1 expression and anagen in hair follicles of mouse back skin after subcutaneous injection. Conditions: C57BL/6 mice in telogen, 0.8 mg/ml solution, 0.1 ml subcutaneously 5 times at intervals of 24 hours. In kind it is in vivo. As to the method: (§1) A C57BL mouse (14 weeks old) was shaved on the back with clippers to confirm that the mouse had both skin areas in anagen and telogen as to the hair cycle based on colors of the skin. Each 200 mg of the skin areas in anagen and telogen was collected from the mouse and homogenized on ice for 2 minutes, and then suspended in a buffer (PBS). The supernatant was collected and subjected to SDS-polyacrylamide gel electrophoresis (SDS-PAGE). The respective hair follicles in telogen and anagen were distinguished by observing the tissue section under a microscope, and the criterion shown in FIG. 1 was applied for judgment.
Promoting activity on hair growth of the aforementioned polypeptide H1 and oligopeptide ssb7 was evaluated. C57BL/6 mice are known to have sustained telogen for about 50 days from the 45-day after birth to around the 95-day, and the hair cycle of the animal is easily judged based on the skin color changes, i.e., from pink in telogen to gray or black in anagen. […] The polypeptide H1 solution (0.8 mg/ml) or the oligopeptide ssb7 solution (0.8 mg/ml) prepared above was subcutaneously injected 5 times in the amount of 0.1 ml at intervals of 24 hours, and Hacl-1 in the hair follicles was measured with time according to the method of Example 1.

Assay [2] concerns Hacl-1 in the cultures (mouse beard). The assay is described as follows: Induction of Hacl-1 expression in cultured mouse beard. The format is cell-based, mice. Conditions: 50 μg/ml, cultivation for 5 days; the control showed only slight expression. As to the method: as §1
The beard on the both sides of the mice used in Example 2 was collected and cultured by the method described in Development, 105, pp. 271-277, 1989. The beard from one side was used as a control, and that from the other side was treated with the aforementioned oligopeptide ssb7 (50 μg/ml). After cultivation for 5 days, Hacl-1 in the cultures was determined according to the method of Example 1.

Where no end group is shown, it is not given here.

Regarding “ssb7: S-S bridged oligopeptide obtained by crosslinking pep7 (Ser-Ile-Glu-Gln-Ser-Cys-Asp-Gln-Asp-Glu) with BMH (SIEQSCDQDE; not fully specified; printed as Ser-Ile-Glu-Gln-Ser-Cys-Asp-Gln-Asp-Glu; also: two chains crosslinked through Cys6 by BMH (bismaleimidohexane))”, the “induction of anagen of the hair follicles” value in assay [1] (20-day, judged from Hacl-1 expression) is “induction of anagen”. Further, the “Hacl-1 band in hair follicle samples (Western Blotting with antiserum against Hacl-1)” value in assay [1] (samples at 20-day) is “clear band of Hacl-1 was observed”. Further, in assay [2], the “expression of Hacl-1 in cultured beard” value is on record as “expression of Hacl-1 was observed”.

Source of the values: patent publication US20020051760A1, “Method for screening a substance having promoting activity on hair growth” (SUMITOMO ELECTRIC INDUSTRIES, Ltd., priority 2000, published 2002).
